Literature values in article PMC9102399 (Molecules, 2022).

Legend:
[1] = beagle dogs
[2] = rats, oral; curcumin 500 mg/kg
[3] = set-up: method as in earlier work; conditions: SD rats

COc1cc(C=CC(=O)CC(=O)C=Cc2ccc(O)c(OC)c2)ccc1O [CUR, 1,7-bis [4-hydroxy-3-methoxy-phenyl]-hepta-1,6-diene-3,5-dione]
oral t1/2 of CUR [1]: about 0.85 h

COc1cc(/C=C/C(=O)CC(=O)/C=C/c2ccc(O)c(OC)c2)ccc1O [curcumin]
time of maximal plasma concentration [2]: 30 min

COc1cc(C=CC(=O)CC(=O)C=Cc2ccc(O)cc2)ccc1O [CUR II, 4-hydroxycinnamoyl-[4-hydroxy-3-methoxycinnamoyl] methane]
t1/2 of oral CUR II [3]: about 5.5 h
